Assay results from US8173635B2, “Kinase inhibitors” (Vertex Pharmaceuticals Incorporated, priority 2007, dated 2012).

Assays:
Format in all cases: biochemical
PKC theta kinase = PKC theta kinase (Homo sapiens, UniProt Q04759); assay: PKC theta kinase inhibition, coupled-enzyme NADH absorbance assay (Ki); conditions: 240 μM ATP, 18 nM PKC theta, 30° C.; read-out: Ki PKC theta
Experimental: (§1) An assay buffer solution was prepared which consisted of 100 mM HEPES (pH 7.5), 10 mM MgCl2, 25 mM NaCl, 0.1 mM EDTA and 0.01% Brij. […] To 60 μL of this enzyme buffer, in a 384 well plate, was added 2 μL of VRT stock solution in DMSO. The mixture was allowed to equilibrate for 10 mins at 30° C. […] Ki values were calculated from initial rate data by non-linear regression using the Prism software package (Prism 4.0a, Graphpad Software, San Diego, Calif.).

PKC delta kinase = PKC delta kinase (Homo sapiens, UniProt Q05655); assay: PKC delta kinase inhibition, coupled-enzyme NADH absorbance assay (Ki); conditions: 150 μM ATP, 46 nM PKC delta, 30° C.; read-out: Ki PKC delta
Experimental: as §1, with “To 16” for “To 60”, “added 1” for “added 2”

PKC alpha kinase = PKC alpha kinase (Homo sapiens, UniProt P17252); assay: PKC alpha kinase inhibition, coupled-enzyme NADH absorbance assay (Ki); conditions: 130 μM ATP, 4.5 nM PKC alpha, 30° C.; read-out: Ki PKC alpha
Experimental: An assay buffer solution was prepared which consisted of 100 mM HEPES (pH 7.5), 10 mM MgCl2, 25 mM NaCl, 0.1 mM EDTA, 100 μM CaCl2 and 0.01% Brij. […] To 16 μL of this enzyme buffer, in a 384 well plate, was added 1 μL of VRT stock solution in DMSO. The mixture was allowed to equilibrate for 10 mins at 30° C. The enzyme reaction was initiated by the addition of 16 μL stock ATP solution prepared in assay buffer to a final assay concentration of 130 μM. Initial rate data was determined from the rate of change of absorbance at 340 nm (corresponding to stoichiometric consumption of NADH) using a Molecular Devices Spectramax plate reader (Sunnyvale, Calif.) over 15 mins at 30° C. […] Ki values were calculated from initial rate data by non-linear regression using the Prism software package (Prism 4.0a, Graphpad Software, San Diego, Calif.).

Chain of PKC delta kinase (Q05655 whole entry): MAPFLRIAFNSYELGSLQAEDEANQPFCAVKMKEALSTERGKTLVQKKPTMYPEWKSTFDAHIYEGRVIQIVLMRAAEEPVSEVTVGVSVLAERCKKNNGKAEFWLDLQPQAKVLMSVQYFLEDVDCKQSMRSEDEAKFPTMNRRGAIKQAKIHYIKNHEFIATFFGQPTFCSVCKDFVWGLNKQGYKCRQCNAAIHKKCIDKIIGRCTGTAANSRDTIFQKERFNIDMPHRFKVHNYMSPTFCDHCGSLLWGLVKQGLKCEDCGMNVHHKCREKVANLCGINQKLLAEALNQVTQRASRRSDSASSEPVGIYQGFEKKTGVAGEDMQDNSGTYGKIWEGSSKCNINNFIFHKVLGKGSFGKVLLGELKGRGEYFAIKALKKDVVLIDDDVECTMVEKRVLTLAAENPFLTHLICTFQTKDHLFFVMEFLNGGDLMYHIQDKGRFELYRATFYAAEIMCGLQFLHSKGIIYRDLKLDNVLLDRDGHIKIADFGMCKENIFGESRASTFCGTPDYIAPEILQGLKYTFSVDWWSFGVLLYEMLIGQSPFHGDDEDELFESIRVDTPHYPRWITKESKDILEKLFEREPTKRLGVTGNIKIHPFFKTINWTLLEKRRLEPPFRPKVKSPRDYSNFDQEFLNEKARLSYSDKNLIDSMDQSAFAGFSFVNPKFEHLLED
Chain of PKC theta kinase (Q04759 whole entry): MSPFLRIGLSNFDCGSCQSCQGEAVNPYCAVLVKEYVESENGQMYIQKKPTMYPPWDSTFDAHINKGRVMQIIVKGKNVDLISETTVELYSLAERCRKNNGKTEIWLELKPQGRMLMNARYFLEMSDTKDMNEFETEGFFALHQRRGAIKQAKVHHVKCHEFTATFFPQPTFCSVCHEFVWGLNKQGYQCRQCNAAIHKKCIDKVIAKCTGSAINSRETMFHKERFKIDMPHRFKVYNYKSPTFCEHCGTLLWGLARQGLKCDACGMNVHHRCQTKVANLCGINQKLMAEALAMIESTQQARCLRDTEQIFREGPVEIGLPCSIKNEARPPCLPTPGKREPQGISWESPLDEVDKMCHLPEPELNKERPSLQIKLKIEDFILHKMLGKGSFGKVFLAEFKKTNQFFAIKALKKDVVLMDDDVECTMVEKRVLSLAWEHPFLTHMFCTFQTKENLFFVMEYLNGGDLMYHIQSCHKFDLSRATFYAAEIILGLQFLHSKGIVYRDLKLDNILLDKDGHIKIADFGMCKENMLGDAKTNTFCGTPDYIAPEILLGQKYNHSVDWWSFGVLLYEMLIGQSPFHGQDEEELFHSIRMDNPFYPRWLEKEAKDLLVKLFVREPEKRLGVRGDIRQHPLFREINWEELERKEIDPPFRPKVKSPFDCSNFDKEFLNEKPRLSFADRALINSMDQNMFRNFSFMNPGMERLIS

Structure (SMILES) | Ki (PKC theta kinase) [µM] | Ki (PKC delta kinase) [µM] | Ki (PKC alpha kinase) [µM]
NCC1(c2cc(F)cc(-c3ccnc4[nH]nc(Cl)c34)c2)CCC1 [Compound 255] | < 0.05 | < 0.05 | < 0.05
CC#CCC(C)(CN)c1cccc(-c2ccnc3[nH]ncc23)c1 (stereo not drawn) [Compound 155] | < 0.05 | < 0.05 | < 0.5
CCC(C)(C#N)c1cc(-c2ccnc3[nH]ncc23)cc(C(F)(F)F)c1 (stereo not drawn) [Compound 93] | < 0.5 | < 2.8 | < 2.8
CC(F)c1cc(-c2ccnc3[nH]ncc23)cc(C(C)(C)C#N)c1 (stereo not drawn) [Compound 88] | < 0.05 | < 2.8 | < 2.8
CCC(C)(C#N)c1cc(CCCF)cc(-c2ccnc3[nH]ncc23)c1 (stereo not drawn) [Compound 107] | < 0.5 | > 2 | < 2.8
CCC(F)(CN)c1cc(C)cc(-c2ccnc3[nH]ncc23)c1 (stereo not drawn) [Compound 227] | < 0.05 | < 2.8 | < 0.5
CC#CCC(C)(C#N)c1cccc(-c2ccnc3[nH]ncc23)c1 (stereo not drawn) [Compound 104] | < 0.5 | < 2.8 | < 2.8
C/C=C/c1cc(-c2ccnc3[nH]ncc23)cc(C(C)(C)C#N)c1 [Compound 54] | < 0.5 | > 2.8 | > 2.8
CCC(C)(C#N)c1cc(-c2ccnc3[nH]ncc23)cc(C(F)(F)CCC2CCCC2)c1 (stereo not drawn) [Compound 117] | > 0.7 | > 2 | > 1.2
CCC(C)(C#N)c1cc(CC#N)cc(-c2ccnc3[nH]ncc23)c1 (stereo not drawn) [Compound 126] | < 0.5 | > 2 | > 1.2
N#CC1(c2cc(-c3ccnc4[nH]ncc34)cc(C(F)(F)F)c2)CCC1 [Compound 92] | < 0.5 | > 2.8 | < 2.8
C=CCC(C)(C#N)c1cccc(-c2ccnc3[nH]ncc23)c1 (stereo not drawn) [Compound 90] | < 0.5 | < 2.8 | < 2.8
CCC(C)(CN)c1cccc(-c2ccnc3[nH]ncc23)c1 (stereo not drawn) [Compound 41] | < 0.05 | < 0.05 | < 0.5
COc1cccc(CC(C)(CN)c2cccc(-c3ccnc4[nH]ncc34)c2)c1 (stereo not drawn) [Compound 173] | < 0.05 | < 0.5 | < 0.5
CCC(C)(CN)c1cc(CCO)cc(-c2ccnc3[nH]ncc23)c1 (stereo not drawn) [Compound 168] | < 0.05 | < 0.5 | < 0.5
CCC(C)(C#N)c1cc(CCO)cc(-c2ccnc3[nH]ncc23)c1 (stereo not drawn) [Compound 101] | < 0.05 | > 2.8 | < 2.8
Cc1cnc2[nH]ncc2c1-c1cccc(C(C)(C)CN)c1 [Compound 237, 2-methyl-2-(3-(5-methyl-1H-pyrazolo[3,4-b]pyridin-4-yl)phenyl)propan-1-amine] | < 2.8 | < 2.8 | < 0.5
CCc1n[nH]c2nccc(-c3cccc(C(C)(CC)CN)c3)c12 (stereo not drawn) [Compound 264] | < 0.05 | < 0.05 | < 0.05
C/C=C\C1(c2cccc(-c3ccnc4[nH]ncc34)c2)CCNC1 (stereo not drawn) [Compound 197] | < 0.05 | < 0.5 | < 0.5
CC#CC[C@@](C)(CN)c1cccc(-c2ccnc3[nH]ncc23)c1 [Compound 186] | < 0.5 | < 2.8 | < 2.8
CC[C@@](C)(CN)c1cccc(-c2ccnc3[nH]ncc23)c1 [Compound 152] | < 0.05 | < 0.5 | < 0.5
COc1ccc(CC(C)(CN)c2cccc(-c3ccnc4[nH]ncc34)c2)cc1 (stereo not drawn) [Compound 174] | < 0.05 | < 0.5 | < 0.5
CCC1(c2cc(C)cc(-c3ccnc4[nH]nc(C(F)(F)F)c34)c2)CNC(=O)O1 (stereo not drawn) [Compound 292] | < 0.05 | > 1.2 | < 0.5
OCc1cccc(-c2ccnc3[nH]ncc23)c1 [Compound 322] | > 0.7 | > 1.2 | > 1.2
NCC1(c2cccc(-c3ccnc4[nH]nc(C(F)(F)F)c34)c2)COC1 [Compound 305, (3-(3-(3-(trifluoromethyl)-1H-pyrazolo[3,4-b]pyridin-4-yl)phenyl)oxetan-3-yl)methanamine] | < 0.05 | < 0.5 | < 2.8
Cc1cc(-c2ccnc3[nH]ncc23)cc(C(C)(C)CN)c1 [Compound 32] | < 0.05 | < 0.5 | < 0.5

Structure (SMILES) | Ki (PKC theta kinase) [µM] | Ki (PKC delta kinase) [µM] | Ki (PKC alpha kinase) [µM]
CCC(O)c1cccc(-c2ccnc3[nH]ncc23)c1 (stereo not drawn) [Compound 77] | < 2.8 | > 2.8 | > 2.8
CCC(C)(C#N)c1cc(-c2ccnc3[nH]ncc23)cc(C(F)(F)CCC2CCCCC2)c1 (stereo not drawn) [Compound 118] | > 0.7 | > 2 | > 1.2
C1=C(c2cccc(-c3ccnc4[nH]ncc34)c2)CNC1 [Compound 231] | < 0.5 | < 2.8 | < 2.8
CCC(C)(CN)c1cc(F)cc(-c2ccnc3[nH]nc(Cl)c23)c1 (stereo not drawn) [Compound 258] | < 0.05 | < 0.05 | < 0.05
NCC1CCc2ccc(-c3ccnc4[nH]ncc34)cc21 (stereo not drawn) [Compound 308] | < 0.5 | < 0.5 | > 1.2
C#CCC(C)(C#N)c1cccc(-c2ccnc3[nH]ncc23)c1 (stereo not drawn) [Compound 91] | < 0.5 | < 2.8 | < 0.5
CC(C)CC(C)(C#N)c1cccc(-c2ccnc3[nH]ncc23)c1 (stereo not drawn) [Compound 71] | < 2.8 | < 2.8 | < 2.8
CCC(C)(CN(C)C)c1cccc(-c2ccnc3[nH]ncc23)c1 (stereo not drawn) [Compound 138, 2-(3-(1H-pyrazolo[3,4-b]pyridin-4-yl)phenyl)-N,N,2-trimethylbutan-1-amine] | < 0.5 | < 2.8 | < 2.8
CC(C)=CCC(C)(CN)c1cccc(-c2ccnc3[nH]ncc23)c1 (stereo not drawn) [Compound 154] | < 0.05 | < 0.5 | < 0.5
CCC(N)c1cccc(-c2ccnc3[nH]ncc23)c1 (stereo not drawn) [Compound 245] | < 0.5 | > 1.2 | > 1.2
NCC1(c2cc(F)cc(-c3ccnc4[nH]nc(C(F)(F)F)c34)c2)CCC1 [Compound 274] | < 0.05 | < 0.5 | < 0.05
CC(C)(C)c1n[nH]c2nccc(-c3cc(Br)cc(C(C)(C)C#N)c3)c12 [Compound 112] | > 0.7 | > 2 | > 1.2
CCC1(c2cc(C)cc(-c3ccnc4[nH]nc(C(F)(F)F)c34)c2)CNC(=S)O1 (stereo not drawn) [Compound 296] | < 0.05 | > 1.2 | < 0.5
NCC1(c2cc(F)cc(-c3ccnc4[nH]nc(C(F)(F)F)c34)c2)CCOCC1 [Compound 276] | < 0.05 | < 2.8 | < 0.5
CCc1cc(-c2ccnc3[nH]ncc23)cc(C(C)(C)C#N)c1 [Compound 62] | < 0.05 | > 2.8 | < 2.8
CC(O)c1cc(-c2ccnc3[nH]ncc23)cc(C(C)(C)CN)c1 (stereo not drawn) [Compound 39] | < 0.5 | > 2.8 | > 2.8
CC(C)(C#N)c1cc(NCCCN)cc(-c2ccnc3[nH]ncc23)c1 [Compound 21] | < 0.5 | > 2.8 | > 2.8
Cc1cc(/C(=C/C#N)CN)cc(-c2ccnc3[nH]ncc23)c1 [Compound 323] | < 0.5 | < 2.8 | < 0.5
CCC(C)(C#N)c1cc(Cl)cc(-c2ccnc3[nH]ncc23)c1 (stereo not drawn) [Compound 87] | < 0.5 | < 2.8 | < 2.8
C/C=C\c1cc(-c2ccnc3[nH]ncc23)cc(C(C)(CC)CN)c1 (stereo not drawn) [Compound 143] | < 0.5 | < 0.5 | < 2.8
CNCc1cc(-c2ccnc3[nH]ncc23)cc(C(C)(C)C#N)c1 [Compound 75] | < 2.8 | > 2.8 | > 2.8
CCC(C)(C#N)c1cc(C)cc(-c2ccnc3[nH]ncc23)c1 (stereo not drawn) [Compound 89] | < 0.5 | < 2.8 | < 2.8
COc1ccc(C2(C#N)CCC2)cc1-c1ccnc2[nH]ncc12 [Compound 221] | > 0.7 | > 2 | > 1.2
CCc1n[nH]c2nccc(-c3cc(C)cc(C4(CN)CC4)c3)c12 [Compound 265] | < 0.05 | < 0.5 | < 0.5
C=Cc1ccc(-c2ccnc3n[nH]cc23)cc1C(C)(C)C#N [Compound 84] | < 2.8 | > 2.8 | > 2.8
